Columns and labels:
[1] = tested on: 6-OHDA rats treated with L-DOPA; test: L-dopa Induced Dyskinesia (LID) rat model, Abnormal Involuntary Movements (AIMs); format: in vivo; details: 6 weeks of daily L-DOPA, 3 weeks of oral golexanolone, compared to group receiving only L-DOPA
Procedure: The ability of golexanolone to reduce or eliminate L-dopa Induced Dyskinesia (LID) was analyzed. This test is described in FIG. 14.
L-dopa Induced Dyskinesia (LID) was induced in a rat model described by Loiodice et al in ACS Chem Neurosci. 2018 Apr. 18; 9(4): pp. 762-772. Abnormal Involuntary Movements (AIM) was measured.
Rats positive in the apomorphine test received daily L-DOPA treatment starting 4 weeks after surgery and oral golexanolone treatment starting 7 weeks after surgery.
The experiment included the following groups: • 1) 6-OHDA rats treated with L-DOPA and receiving vehicle; • 2) 6-OHDA rats treated with golexanolone and treated with L-DOPA (n=12 per group). The appearance of a variety of AIMs were analyzed after 6 weeks of daily L-DOPA injections, and 3 weeks of golexanolone treatment, as described in Lundblad M et al; Eur J Neurosci. 2002 January; 15(1): pp. 120-132, and Loiodice et al in ACS Chem Neurosci. 2018 Apr. 18; 9(4): pp. 762-772.
Axial AIMs, limb AIMs, orolingual AIMs and locomotive AIMs were evaluated. One hour after the daily dose of golexanolone, L-DOPA was injected and AIMs were analyzed every 20 minutes for a total of three hours, as shown in FIG. 15.
As shown in this graph, there were less AIMs in the group of animals treated with golexanolone compared to the group who received only L-DOPA.

6-OHDA rat model [2] = test: CatWalk test, initial dual stance; format: in vivo; details: 6-OHDA rats; 50 mg/kg daily intragastric
From the text: (§1) The unilaterally 6-hydroxydopamine (6-OHDA) rat model according to Carvalho M et al. in Molecular Neurodegeneration 2013, 8:14; pp. 1-11, was used.
(§2) Under isoflurane (5% induction and then 2%) anesthesia the animals were placed on a stereotaxic frame with non-traumatic ear bars (Stoelting, USA), and unilaterally injected (left hemisphere) using an 30-gauge needle Hamilton syringe (Hamilton Company, Switzerland), with either vehicle (sham group, n=20) or 6-OHDA hydrochloride (Sigma, USA) (6-OHDA group, n=40) directly into the medial forebrain bundle (coordinates related to Bregma, AP=−4.4 mm; ML=−1.0 mm; DV=−7.8 mm; according to (Paxinos G, Watson C. The Rat Brain in Stereotaxic Coordinates. 4. San Diego, USA: Academic; 1998).
(§3) At a rate of 1 μl/min, sham animals received 2 μl of 0.2 mg/ml ascorbic acid in 0.9% NaCl, and 6-OHDA animals were injected with 2 μl 6-OHDA hydrochloride (4 μg/μl) with 0.2 mg/ml ascorbic acid in 0.9% NaCl. After injection the syringe was left in place for 10 minutes to allow diffusion. […]
(§4) The CatWalk™ system measures various aspects of locomotor pattern. Based on the position, pressure, and surface area of each footfall, multiple parameters are calculated. […] Paw print designations were assigned and data analysed using the CatWalk analysis software (v 7.1)
Initial dual stance was evaluated in the catwalk test. […]

microglia = test: Microglia activation in striatum (perimeter of Iba1 stained cells); format: in vivo, rat; details: 6-OHDA rats treated with golexanolone; 5 weeks after surgery; mean±SEM; untreated 6-OHDA 217±8, shams 254±1
From the text: as §1, §2
(§5) At a rate of 1 μl/min, sham animals received 2 μl of 0.2 mg/ml ascorbic acid in 0.9% NaCl, and 6-OHDA animals were injected with 2 μl 6-OHDA hydrochloride (4 μg/μl) with 0.2 mg/ml ascorbic acid in 0.9% NaCl. After injection the syringe was left in place for 10 minutes to allow diffusion.
(§6) Rats positive in the apomorphine-induced rotation test (20 animals) were included in the study, together with 20 sham-operated controls. […]
In this Parkinson's Disease test model, microglia activation was analyzed by measuring the perimeter of individual Iba1 stained cells with IpWin2 software at 5 weeks after surgery.

[3] = tested on: tyrosine hydroxylase (TH); test: Tyrosine hydroxylase content in striatum, immunohistochemistry; format: in vivo, rat; details: 6-OHDA rats treated with golexanolone; 5 weeks after surgery; mean±SEM; untreated 6-OHDA rats 36±4%
From the text: as §1, §2, §5
(§7) Rats positive in the apomorphine-induced rotation test (20 animals) were included in the study, together with 20 sham-operated controls. Golexanolone treatment (50 mg/kg, daily, intragastric) and vehicle treatment as negative controls started 4 weeks after surgery. […]
Tyroxine hydroxylase (TH) was analysed according to Heo et al (Curr Biol. 2020 Jan. 20; 30(2): pp. 276-291). […]

α-synuclein = α-synuclein content in striatum by Western blot; format: in vivo, rat; details: 6-OHDA rats treated with golexanolone, 10 weeks after surgery, mean±SEM, untreated 6-OHDA rats 195±35%
From the text: as §1, §2, §3
α-synuclein content was analyzed by Western blot. […] Membranes were scanned using the ScanJet 5300C (Hewlett-Packard, Amsterdam, the Netherlands) and band intensities were quantified using Alpha Imager 2200 version 3.1.3 (Alpha Innotech Corporation). Results were expressed as percentage of shams. […]

6-OHDA rat model [4] = test: Motor coordination, Motorater test (horizontal ladder); format: in vivo; details: 6-OHDA rats; 50 mg/kg daily intragastric; 7 weeks after surgery, 3 weeks of treatment; versus control rats
From the text: as §1, §2
At a rate of 1 μl/min, sham animals received 2 μl of 0.2 mg/ml ascorbic acid in 0.9% NaCl, and 6-OHDA animals were injected with 2 μl 6-OHDA hydrochloride (4 μg/μl) with 0.2 mg/ml ascorbic acid in 0.9% NaCl. […]
Motor coordination was tested with the Motorater test (Zörner B, Filli L, Starkey M L, Gonzenbach R, Kasper H, Röthlisberger M, et al. Profiling locomotor recovery: comprehensive quantification of impairments after CNS damage in rodents. Nat Methods. 2010; 7(9): pp. 701-708). […] The performance is recorded from the bottom by a mobile high-speed camera at 200 frames per second. Failures to set a foot on the ladder stairs are quantified.

6-OHDA rat model [5] = test: Sucrose preference test (anhedonia, depression); format: in vivo; details: 6-OHDA rats; 50 mg/kg daily intragastric; 7 weeks after surgery, 3 weeks of treatment
From the text: as §1, §2, §5, §7

6-OHDA rat model [6] = test: Object location memory test (OLM); format: in vivo; details: 6-OHDA rats; 50 mg/kg daily intragastric; 6 weeks after surgery, 2 weeks of treatment
From the text: as §1, §2, §3
The object location memory test (OLM) evaluates spatial location memory. […] The time exploring each object is analyzed. The discrimination ratio is calculated: (Time exploring new object location-time exploring old located object)/total time exploring the objects. […]

6-OHDA rat model [7] = test: Anxiety, open arena test; format: in vivo; details: 6-OHDA rats; 50 mg/kg daily intragastric; 5 weeks after surgery, 10 days of treatment
From the text: as §1, §2, §5, §6
Anxiety was evaluated in an open arena during five minutes by measuring the time that the rat remains in the central zone, instead of close to the walls of the box, where the rats feel safer. […]

6-OHDA rat model [8] = test: CatWalk test, locomotor gait swing; format: in vivo; details: 6-OHDA rats; 50 mg/kg daily intragastric; 7 weeks after surgery, 3 weeks of treatment
From the text: as §1, §2, §3, §4
Locomotor gait swing was evaluated in the catwalk test. […]

astrocytes = test: Astrocytes activation in striatum (GFAP stained area); format: in vivo, rat; details: 6-OHDA rats treated with golexanolone; 5 weeks after surgery; mean±SEM; untreated 6-OHDA rats 123±10%
From the text: as §1, §2, §5, §6
Astrocytes activation was assessed at 5 weeks after surgery, by measuring the total GFAP stained area with Image J software. Results were expressed as percentage of shams.
Astrocyte activation in the striatum was analysed by immunohistochemistry. […]

6-OHDA rat model [9] = test: Fatigue in treadmill test, 6-OHDA rats; format: in vivo; details: golexanolone 50 mg/kg daily intragastric, 5 weeks after surgery, 9 days of treatment
From the text: A 6-OHDA rat model as described by Heo et al. (Curr Biol. 2020 Jan. 20; 30(2): pp. 276-291) and by Carvalho et al. (Mol. Neurodegener. 2013, 8: 14: Behavioral characterization of the 6-hydroxidopamine model of Parkinson's disease and pharmacological rescuing of non-motor deficits) is used.
as §1
Eight week old Wistar-Han male rats (56 animals) (Charles River, Barcelona) were housed, two per cage, under standard laboratory conditions: 12 hour light-dark cycle, 22° C. room temperature, 55% relative humidity, food and water available ad libitum. All manipulations were done in accordance with the local regulations (European Union Directive 2010/63/EU). […]
Fatigue was evaluated in a treadmill consisting of a motorized conveyor belt divided into two parallel sectors, each with an electrified grid. […] The value recorded during the last 15 minutes of each test (and the times it falls on the grid) is recorded. […]

Structure (SMILES): C#C[C@]1(O)CC[C@@]2(C)C(CC[C@@H]3[C@@H]2CC[C@]2(C)/C(=N/O)CC[C@@H]32)C1 (stereo partly drawn) [golexanolone, 3α-ethynyl-3β-hydroxyandrostan-17-one oxime]
- All AIMs (axial, limb, orolingual and locomotive) during three hours [1]: less AIMs
- Initial dual stance in the CatWalk test (6-OHDA rat model [2]): improves initial dual stance
- Microglia activation: perimeter of individual Iba1 stained cells in the injured striatum (microglia): 250±8 μm
- TH staining in the striatum [3]: 62±11 % of shams
- Level of α-synuclein in the injured striatum (α-synuclein): 99±9 % of shams
- Errors crossing the horizontal ladder (failures to set a foot on the ladder stairs) (6-OHDA rat model [4]): made less errors
- Depression (anhedonia, sucrose preference) (6-OHDA rat model [5]): improves depression
- Object location memory (discrimination ratio) (6-OHDA rat model [6]): improves object location memory
- Anxiety (time in the central zone of open arena) (6-OHDA rat model [7]): improves anxiety
- Locomotor gait swing in the CatWalk test (6-OHDA rat model [8]): improved swing
- Astrocyte activation: total GFAP stained area in the injured striatum (astrocytes): 92±4 % of shams
- Fatigue (time in the treadmill, time in shock) (6-OHDA rat model [9]): improved fatigue

Reference: US20260207625A1, “New medical use of 3a-ethynyl-3ß hydroxyandrostan-17-one oxime” (priority 2022, published 2026)
